Laboratory results taken from US20240383905A1, “FGFR INHIBITORS AND METHODS OF USE THEREOF” (3H PHARMACEUTICALS CO., LTD., priority 2021, published 2024).
pIC50: −log10 of the molar value.

Legend:
FGFR2 = target: T1, FGFR2 (Homo sapiens, UniProt P21802); assay: FGFR2 Biochemical Caliper Assay (KinEASE-TK kit); conditions: 0.07 nM FGFR2; compound incubated with protein 10 min, reaction 45 min at RT; read-out: FGFR2 Cliper IC50
T1 construct: purchased Carna 08-134

FGFR1 = target: T2, FGFR1 (Homo sapiens, UniProt P11362); assay: FGFR1 Biochemical Caliper Assay (KinEASE-TK kit); conditions: ratio FGFR1/FGFR2 of the biochemical assay
T2 construct: purchased Carna 08-133
T2 sequence (P11362 22-822): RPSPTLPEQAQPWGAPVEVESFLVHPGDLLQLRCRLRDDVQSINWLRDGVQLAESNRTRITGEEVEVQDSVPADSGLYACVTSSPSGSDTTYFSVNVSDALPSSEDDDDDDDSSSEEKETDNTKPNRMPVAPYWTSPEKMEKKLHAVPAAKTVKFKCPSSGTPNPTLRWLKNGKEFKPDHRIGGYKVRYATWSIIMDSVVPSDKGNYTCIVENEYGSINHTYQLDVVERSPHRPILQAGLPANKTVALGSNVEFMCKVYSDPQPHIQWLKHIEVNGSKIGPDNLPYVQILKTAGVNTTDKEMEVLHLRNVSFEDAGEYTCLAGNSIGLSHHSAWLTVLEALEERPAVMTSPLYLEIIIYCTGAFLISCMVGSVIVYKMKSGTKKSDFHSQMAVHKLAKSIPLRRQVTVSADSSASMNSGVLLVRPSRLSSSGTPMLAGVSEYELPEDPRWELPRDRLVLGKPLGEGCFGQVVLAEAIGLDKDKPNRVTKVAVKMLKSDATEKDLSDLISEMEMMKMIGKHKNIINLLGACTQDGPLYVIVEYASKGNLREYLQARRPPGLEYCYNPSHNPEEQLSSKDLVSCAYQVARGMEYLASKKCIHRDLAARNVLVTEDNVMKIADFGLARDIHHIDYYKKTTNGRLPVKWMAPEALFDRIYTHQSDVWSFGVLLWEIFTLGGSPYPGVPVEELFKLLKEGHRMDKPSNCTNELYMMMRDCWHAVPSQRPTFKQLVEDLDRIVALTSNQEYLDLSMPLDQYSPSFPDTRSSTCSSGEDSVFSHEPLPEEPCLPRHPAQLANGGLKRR
Summary of the method: (§1)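 KinEASE-TK HTRF readout: enzyme at 0.2 nM (FGFR1, FGFR3) preincubated 10 min at RT with 10-point 3-fold compound dilutions before TK-substrate/ATP start.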

FGFR3 = target: T3, FGFR3 (Homo sapiens, UniProt P22607); assay: FGFR3 Biochemical Caliper Assay (KinEASE-TK kit); conditions: ratio FGFR3/FGFR2 of the biochemical assay
T3 construct: purchased Carna 08-135
T3 sequence (P22607 23-806): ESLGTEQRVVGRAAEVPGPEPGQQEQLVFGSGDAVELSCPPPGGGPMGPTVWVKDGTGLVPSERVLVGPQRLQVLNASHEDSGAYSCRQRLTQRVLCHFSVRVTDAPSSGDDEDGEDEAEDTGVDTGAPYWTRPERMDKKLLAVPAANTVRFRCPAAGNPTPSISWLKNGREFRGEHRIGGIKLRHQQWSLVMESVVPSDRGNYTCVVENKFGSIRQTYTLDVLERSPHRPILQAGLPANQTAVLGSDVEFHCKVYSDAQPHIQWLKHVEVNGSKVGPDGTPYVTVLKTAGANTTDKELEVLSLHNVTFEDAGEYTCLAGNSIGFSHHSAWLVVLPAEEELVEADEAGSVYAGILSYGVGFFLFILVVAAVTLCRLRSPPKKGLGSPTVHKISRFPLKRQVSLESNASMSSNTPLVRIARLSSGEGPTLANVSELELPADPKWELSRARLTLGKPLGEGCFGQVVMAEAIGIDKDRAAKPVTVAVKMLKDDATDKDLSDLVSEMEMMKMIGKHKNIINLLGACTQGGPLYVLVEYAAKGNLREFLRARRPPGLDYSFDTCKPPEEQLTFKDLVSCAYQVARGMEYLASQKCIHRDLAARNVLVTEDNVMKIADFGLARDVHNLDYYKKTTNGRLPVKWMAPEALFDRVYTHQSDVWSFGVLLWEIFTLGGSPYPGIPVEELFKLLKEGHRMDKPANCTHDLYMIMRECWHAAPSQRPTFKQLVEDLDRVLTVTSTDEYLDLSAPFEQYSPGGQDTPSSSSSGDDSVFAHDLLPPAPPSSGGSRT
Summary of the method: as §1

SNU16 cells = assay: SNU16 Cancer Cell Line Proliferation Assay (CellTiter-Glo); assay type: cell-based; conditions: Homo sapiens, SNU-16, 72 h
Summary of the method: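 SNU16 cells at 5000/well exposed to 9-point 3-fold serial compound dilutions (DMSO control) for 72 h at 37 °C, 5% CO2. Viability read by luminescence; IC50 calculated from dose-response.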

T1 sequence (P21802 22-821): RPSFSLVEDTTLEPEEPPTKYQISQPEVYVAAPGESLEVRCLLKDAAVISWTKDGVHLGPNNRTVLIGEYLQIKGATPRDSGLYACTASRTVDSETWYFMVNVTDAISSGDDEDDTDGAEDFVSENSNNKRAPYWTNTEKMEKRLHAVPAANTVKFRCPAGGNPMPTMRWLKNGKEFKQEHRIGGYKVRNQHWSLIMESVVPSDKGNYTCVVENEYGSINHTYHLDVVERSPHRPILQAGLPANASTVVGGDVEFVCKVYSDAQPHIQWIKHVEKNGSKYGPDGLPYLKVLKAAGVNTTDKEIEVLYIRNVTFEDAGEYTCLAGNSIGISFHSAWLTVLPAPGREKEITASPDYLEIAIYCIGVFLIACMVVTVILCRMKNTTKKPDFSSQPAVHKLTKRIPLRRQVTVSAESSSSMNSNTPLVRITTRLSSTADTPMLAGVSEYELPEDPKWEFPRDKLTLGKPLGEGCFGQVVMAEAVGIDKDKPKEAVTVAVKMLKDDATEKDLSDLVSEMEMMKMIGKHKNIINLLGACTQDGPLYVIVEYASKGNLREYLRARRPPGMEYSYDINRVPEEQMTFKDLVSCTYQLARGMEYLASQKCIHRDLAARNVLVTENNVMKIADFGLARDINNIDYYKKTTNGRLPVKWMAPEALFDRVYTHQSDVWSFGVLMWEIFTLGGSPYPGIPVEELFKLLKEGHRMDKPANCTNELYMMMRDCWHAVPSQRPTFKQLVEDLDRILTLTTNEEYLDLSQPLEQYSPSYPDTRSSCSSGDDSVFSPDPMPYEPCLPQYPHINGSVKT

Row | SMILES | pIC50 (FGFR2) | Selectivity FGFR1/FGFR2 (FGFR1) | Selectivity FGFR3/FGFR2 (FGFR3) | pIC50 (SNU16 cells)
1 | CC#CC(=O)Nc1ccc(-c2nn3ncnc(N)c3c2-c2ccc(C(=O)NC3(C(F)(F)F)CC3)c(OC)c2)cc1 [Compound 395] | < 8.00 | A+ (Selectivity of FGFR1/FGFR2 greater or equal to 500) | B (Selectivity of FGFR3/FGFR2 less than 100 but greater than or equal to 25) | ≥ 8.00
2 | C=CC(=O)Nc1ccc(-c2c(-c3ccc(Oc4nccc(C)n4)c(OC)c3)c3c(N)ncc(C(N)=O)c3n2C)cc1 [Compound 21, 2-(4-acrylamidophenyl)-4-amino-3-(3-methoxy-4-((4-methylpyrimidin-2-yl)oxy)phenyl)-1-methyl-1H-pyrrolo[3,2-c]pyridine-7-carboxamide] | > 8.30 | A+ (Selectivity of FGFR1/FGFR2 greater or equal to 500) | A (Selectivity of FGFR3/FGFR2 less than 150 but greater than or equal to 100) | < 7.30
3 | C=CC(=O)Nc1ccc(-c2c(-c3ccc(NC(=O)C4CC4)c(OC)c3)c3c(N)ncc(C#N)c3n2C)cc1 [Compound 237] | 8.00 to 8.30 | B (Selectivity of FGFR1/FGFR2 less than 300 but greater than or equal to 200) | A+ (Selectivity of FGFR3/FGFR2 greater or equal to 150) | ≥ 8.00
4 | C#CC(=O)Nc1ccc(-c2nn3ncnc(N)c3c2-c2ccc(Oc3cccc(C)n3)c(F)c2)cc1 [Compound 410] | > 8.30 | A (Selectivity of FGFR1/FGFR2 less than 500 but greater than or equal to 300) | A (Selectivity of FGFR3/FGFR2 less than 150 but greater than or equal to 100) | < 7.30
5 | C=CC(=O)Nc1ccc(-c2[nH]c3c(C#N)cnc(N)c3c2-c2ccc(C(=O)NCC(F)(F)F)c(OC)c2)cc1 [Compound 248] | > 8.30 | C (Selectivity of FGFR1/FGFR2 less than 200 but greater than or equal to 100) | A+ (Selectivity of FGFR3/FGFR2 greater or equal to 150) | ≥ 8.00
6 | C=CC(=O)Nc1ccc(-c2nn3ncnc(N)c3c2-c2ccc(C(=O)NCC(C)(C)OC)c(OC)c2)cc1 [Compound 56, 4-(6-(4-acrylamidophenyl)-4-aminopyrazolo[5,1-f] [1,2,4]triazin-5-yl)-2-methoxy-N-(2-methoxy-2-methylpropyl)benzamide] | 8.00 to 8.30 | A+ (Selectivity of FGFR1/FGFR2 greater or equal to 500) | A (Selectivity of FGFR3/FGFR2 less than 150 but greater than or equal to 100) | ≥ 8.00
7 | C=CC(=O)Nc1ccc(-c2nn3ncnc(N)c3c2-c2ccc(Oc3ccn(C)n3)c(F)c2)cc1 [Compound 402, N-(4-(4-amino-5-(3-fluoro-4-((1-methyl-1H-pyrazol-3-yl)oxy)phenyl)pyrazolo [5,1-f][1,2,4]triazin-6-yl)phenyl)acrylamide] | < 8.00 | A+ (Selectivity of FGFR1/FGFR2 greater or equal to 500) | A+ (Selectivity of FGFR3/FGFR2 greater or equal to 150) | ≥ 8.00
8 | C=CC(=O)Nc1ccc(-c2nn3ncnc(N)c3c2-c2ccc(C(=O)NC3CC(F)(F)C3)c(OC)c2)cc1 [Compound 98, 4-(6-(4-acrylamidophenyl)-4-aminopyrazolo[5,1-f] [1,2,4]triazin-5-yl)-N-(3,3-difluorocyclobutyl)-2-methoxybenzamide] | > 8.30 | A+ (Selectivity of FGFR1/FGFR2 greater or equal to 500) | A+ (Selectivity of FGFR3/FGFR2 greater or equal to 150) | ≥ 8.00
9 | C=C(C)C(=O)Nc1ccc(-c2c(-c3ccc(Oc4nccc(C)n4)cc3)c3c(N)ncc(C#N)c3n2C)c(F)c1 [Compound 467, N-(4-(4-amino-7-cyano-1-methyl-3-(4-((4-methylpyrimidin-2-yl)oxy)phenyl)-1H-pyrrolo[3,2-c]pyridin-2-yl)-3-fluorophenyl) methacrylamide] | < 8.00 | A+ (Selectivity of FGFR1/FGFR2 greater or equal to 500) | A+ (Selectivity of FGFR3/FGFR2 greater or equal to 150) | ≥ 8.00
10 | C=CC(=O)Nc1ccc(-c2nn3ncnc(N)c3c2-c2ccc(C(=O)NCC)c(OC)c2)cc1 [Compound 60, 4-(6-(4-acrylamidophenyl)-4-aminopyrazolo[5,1-f] [1,2,4]triazin-5-yl)-N-ethyl-2-methoxybenzamide] | 8.00 to 8.30 | A+ (Selectivity of FGFR1/FGFR2 greater or equal to 500) | A (Selectivity of FGFR3/FGFR2 less than 150 but greater than or equal to 100) | ≥ 8.00
11 | C=C(F)C(=O)Nc1ccc(-c2[nH]c3c(C#N)cnc(N)c3c2-c2ccc(C(=O)NC3CC(F)(F)C3)c(OC)c2)cc1 [Compound 319, 4-(4-amino-7-cyano-2-(4-(2-fluoroacrylamido)phe-nyl)-1H-pyrrolo[3,2-c]pyridin-3-yl)-N-(3,3-difluorocyclobutyl)-2-methoxybenzamide] | > 8.30 | A (Selectivity of FGFR1/FGFR2 less than 500 but greater than or equal to 300) | A+ (Selectivity of FGFR3/FGFR2 greater or equal to 150) | ≥ 8.00
12 | C=C(F)C(=O)Nc1ccc(-c2nn3ncnc(N)c3c2-c2ccc(C(=O)NC3(C(F)(F)F)CC3)c(OC)c2)c(OC)c1 [Compound 415] | > 8.30 | B (Selectivity of FGFR1/FGFR2 less than 300 but greater than or equal to 200) | B (Selectivity of FGFR3/FGFR2 less than 100 but greater than or equal to 25) | ≥ 8.00
13 | C=C(F)C(=O)Nc1ccc(-c2nn3ncnc(N)c3c2-c2ccc(C(=O)NC34CC(F)(C3)C4)c(OC)c2)c(OC)c1 [Compound 416, 4-(4-amino-6-(4-(2-fluoroacrylamido)-2-methoxyphenyl)pyrazolo[5,1-f][1,2,4]triazin-5-yl)-N-(3-fluorobicyclo[1.1.1]pentan-1-yl)-2-methoxybenzamide] | > 8.30 | B (Selectivity of FGFR1/FGFR2 less than 300 but greater than or equal to 200) | B (Selectivity of FGFR3/FGFR2 less than 100 but greater than or equal to 25) | ≥ 8.00
14 | C=CC(=O)Nc1ccc(-c2c(-c3ccc(C(=O)NC4CC4(F)F)c(OC)c3)c3c(N)ncc(C#N)c3n2C)cc1 (centres unmarked) [Compound 167, 4-(2-(4-acrylamidophenyl)-4-amino-7-cyano-1-methyl-1H-pyrrolo[3,2-c]pyridin-3-yl)-N-(2,2-difluorocyclopropyl)-2-methoxybenzamide] | > 8.30 | A (Selectivity of FGFR1/FGFR2 less than 500 but greater than or equal to 300) | B (Selectivity of FGFR3/FGFR2 less than 100 but greater than or equal to 25) | ≥ 8.00
15 | C=CC(=O)Nc1ccc(-c2c(-c3ccc(C(=O)NC4CCC4)c(OC)c3)c3c(N)ncc(C#N)c3n2CCOC)cc1 [Compound 59, 4-(2-(4-acrylamidophenyl)-4-amino-7-cyano-1-(2-methoxyethyl)-1H-pyrrolo[3,2-c]pyridin-3-yl)-N-cyclobutyl-2-methoxybenzamide] | > 8.30 | A (Selectivity of FGFR1/FGFR2 less than 500 but greater than or equal to 300) | A (Selectivity of FGFR3/FGFR2 less than 150 but greater than or equal to 100) | ≥ 8.00
16 | [2H]C([2H])([2H])Oc1cc(-c2c(-c3ccc(NC(=O)C(=C)F)cc3)nn3ncnc(N)c23)ccc1C(=O)NCC1(F)CC1 [Compound 372, 4-(4-amino-6-(4-(2-fluoroacrylamido)phe-nyl)pyrazolo[5,1-f][1,2,4]triazin-5-yl)-N-((1-fluorocyclo-propyl)methyl)-2-(methoxy-d3)benzamide] | > 8.30 | A+ (Selectivity of FGFR1/FGFR2 greater or equal to 500) | A+ (Selectivity of FGFR3/FGFR2 greater or equal to 150) | ≥ 8.00
17 | C=C(F)C(=O)Nc1ccc(-c2nn3ncnc(N)c3c2-c2ccc(C(=O)NC3CC(F)C3)c(OC)c2)c(F)c1 (centres unmarked) [Compound 249] | > 8.30 | C (Selectivity of FGFR1/FGFR2 less than 200 but greater than or equal to 100) | A+ (Selectivity of FGFR3/FGFR2 greater or equal to 150) | ≥ 8.00
18 | C=C(F)C(=O)Nc1ccc(-c2c(-c3ccc(C(=O)NC4CCC4)cc3)c3c(N)ncc(C#N)c3n2C)cc1 [Compound 97, 4-(4-amino-7-cyano-2-(4-(2-fluoroacrylamido)phe-nyl)-1-methyl-1H-pyrrolo[3,2-c]pyridin-3-yl)-N-cyclobutylbenzamide] | 8.00 to 8.30 | A+ (Selectivity of FGFR1/FGFR2 greater or equal to 500) | A+ (Selectivity of FGFR3/FGFR2 greater or equal to 150) | ≥ 8.00
19 | C=C(F)C(=O)Nc1ccc(-c2nn3ncnc(N)c3c2-c2ccc(C(=O)NCC3(C(F)(F)F)CC3)c(OC)c2)c(F)c1 [Compound 361] | > 8.30 | A (Selectivity of FGFR1/FGFR2 less than 500 but greater than or equal to 300) | A (Selectivity of FGFR3/FGFR2 less than 150 but greater than or equal to 100) | ≥ 8.00
20 | C=CC(=O)Nc1ccc(-c2nn3ncnc(N)c3c2-c2ccc(C(=O)C3CCCCC3)c(OC)c2)cc1 [Compound 431, N-(4-(4-amino-5-(4-(cyclohexanecarbonyl)-3-methoxyphenyl)pyrazolo[5,1-f][1,2,4]triazin-6-yl)phenyl) acrylamide] | < 8.00 | A+ (Selectivity of FGFR1/FGFR2 greater or equal to 500) | A+ (Selectivity of FGFR3/FGFR2 greater or equal to 150) | ≥ 8.00
